Test results as given in patent US8871772B2, “Therapeutic methods and compounds” (Ampio Pharmaceuticals, Inc., priority 2008, dated 2014).

What was measured:
Type in all cases: cell-based
[1] = test system: STTG grade 4 astrocytoma cell line; experiment: Proliferation of STTG cancer cells, Promega cell titer assay; settings: 20 μM, 96 hours, negative number = increase
Protocol: (§1) Assays were performed to determine the effect of Cpd. 5 (synthesis described in Example 1) on proliferation of two cancer cell lines. These two cell lines were STTG grade 4 astrocytoma cell line and AU565 breast cancer cell line. Both cell lines were obtained from American Type Culture Collection, Rockville, Md. (ATCC).
(§2) To perform the assays, a 50 mM stock solution of Cpd. 5 was prepared in DMSO and frozen at −80° C. Aliquots of the stock solution were removed and 100 μM dilutions were made in Iscove's modified Dulbecco's medium (IMDM; obtained from ATCC) supplemented with 10% fetal bovine serum (FBS) and penicillin/streptomycin solution. Controls containing equivalent amounts of DMSO to the 100 μM solution were mixed for comparative purposes. 100 μl of the resulting solutions were then added to 96 well culture plates in triplicate and placed in a 37° C. incubator with 5% CO2 to warm.
(§3) At this point, cells were removed from passage flasks using trypsin and counted using trypan blue to establish cell counts/ml and viability. For all experiments, viability of cells was greater than 95%. Solutions of 4,000 cells/100 μl were prepared in the medium from above and 100 μl of the solutions were added to each well of the plates. The plates were placed back in the incubator and incubated with the compounds for 96 hours.
(§4) Following incubation, cell proliferation was assayed by adding 20 μl Promega cell titer aqueous one reagent to each well. […] The plates were incubated at 37° C. for an additional 4-18 hours to allow the colorimetric assay to develop, and the OD of each well was determined in a microplate reader using a 530 nm filter. The OD of wells containing cell titer reagent in culture medium with no cells was subtracted from the OD of all experimental readings.
(§5) The % decrease of the total cell titer signal was determined using the following formula. […] The p values were calculated versus diluent controls.

[2] = test system: AU565 breast cancer cell line; experiment: Proliferation of AU565 cancer cells, Promega cell titer assay; settings: AU565, 20 μM, 96 hours; negative number = increase
Protocol: as §1, §2, §3, §4, §5

[3] = test system: U-118 metastatic astrocytoma cell line; experiment: Proliferation of U-118 cancer cells, Promega cell titer assay
Protocol: Assays were performed to determine the effect of Cpd. 5 on proliferation of an additional cancer cell line. This cell line was the U-118 metastatic astrocytoma cell line. It was obtained from ATCC.
To perform the assays, a 50 mM stock solution of Cpd. 5 was prepared in DMSO and frozen at −80° C. […] Controls containing equivalent amounts of DMSO to the 300 μM solution were mixed for comparative purposes. 100 μl of the resulting solutions were then added to 96 well culture plates in triplicate and placed in a 37° C. incubator with 5% CO2 to warm.
as §3, with “Cells” for “At this point, cells”, “trypsin and ethylenediaminetetracetic acid (EDTA)” for “trypsin”, “above,” for “above”
Following incubation, cell proliferation was assayed by adding 20 μl Promega cell titer aqueous one reagent to each well. Promega cell titer reagent is a solution containing a tetrazolium dye that is reduced by living cells to a formazan dye, and this reduction is proportional to the number of living cells present in the well. The plates were incubated at 37° C. for an additional 4 hours to allow the colorimetric assay to develop, and the OD of each well was determined in a microplate reader using a 530 nm filter. The OD of wells containing cell titer reagent in culture medium with no cells was subtracted from the OD of all experimental readings.
The % decrease of the total cell titer signal was determined using the following formula. ((Diluent OD−Experimental OD)/Diluent OD))×100. Data are presented in Table 5 as mean % decrease of cell titer signal of three separate experiments, plus or minus standard deviation. In the mean % decrease column, a positive number means a decrease in cell titer signal, while a negative number means an increase in cell titer signal. The p values were calculated versus diluent controls.
The above experiment was repeated using the U-118 cells at 3000 cells/well.

## O=c1cc(N2CCNCC2)oc2c(-c3ccccc3)cccc12 [LY303511, reference compound]
[1]
  MEAN % DECREASE of cell titer signal: −4.74%
[2]
  MEAN % DECREASE of cell titer signal: −2.34%
[3]; U-118, 3000 cells/well, 40 μM final
  MEAN % DECREASE of cell titer signal: 0.41%
[3]; U-118, 4,000 cells/well, 20 μM final, 96 hours
  MEAN % DECREASE of cell titer signal: −25.93%
